Experimental data from US20020026053A1, “Novel 3-(substituted) -2- indolinones compounds and use thereof as inhibitors of protein kinase activity” (priority 1997, published 2002).

Assays:
PDGF-R = PDGF-R Assay (cellular ELISA, U1242 cells); assay type: cell-based; set-up: concentration or dose not given beside the values; details: protocol P.119
How it was run: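 U1242 cells seeded in 0.5% serum, serum-starved, then exposed to compound for 2 hr at 37°C before 5–10 min ligand stimulation and lysis in HNTG. Lysate captured on receptor-antibody-coated plates; phosphotyrosine detected with polyclonal anti-pTyr, goat anti-rabbit IgG and ABTS/H2O2, A410 (ref 630 nm), versus untreated cells.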

EGFR = biological target: T1, EGFR (Homo sapiens, UniProt P00533); experiment: Biochemical EGFR Assay; set-up: concentration or dose not given beside the values; details: protocol P.167
T1 construct: endogenous in cells; host or cells: A431 cells (lysate, captured with SUMO1 anti-EGFR antibody)
T1 sequence (P00533 25-1210): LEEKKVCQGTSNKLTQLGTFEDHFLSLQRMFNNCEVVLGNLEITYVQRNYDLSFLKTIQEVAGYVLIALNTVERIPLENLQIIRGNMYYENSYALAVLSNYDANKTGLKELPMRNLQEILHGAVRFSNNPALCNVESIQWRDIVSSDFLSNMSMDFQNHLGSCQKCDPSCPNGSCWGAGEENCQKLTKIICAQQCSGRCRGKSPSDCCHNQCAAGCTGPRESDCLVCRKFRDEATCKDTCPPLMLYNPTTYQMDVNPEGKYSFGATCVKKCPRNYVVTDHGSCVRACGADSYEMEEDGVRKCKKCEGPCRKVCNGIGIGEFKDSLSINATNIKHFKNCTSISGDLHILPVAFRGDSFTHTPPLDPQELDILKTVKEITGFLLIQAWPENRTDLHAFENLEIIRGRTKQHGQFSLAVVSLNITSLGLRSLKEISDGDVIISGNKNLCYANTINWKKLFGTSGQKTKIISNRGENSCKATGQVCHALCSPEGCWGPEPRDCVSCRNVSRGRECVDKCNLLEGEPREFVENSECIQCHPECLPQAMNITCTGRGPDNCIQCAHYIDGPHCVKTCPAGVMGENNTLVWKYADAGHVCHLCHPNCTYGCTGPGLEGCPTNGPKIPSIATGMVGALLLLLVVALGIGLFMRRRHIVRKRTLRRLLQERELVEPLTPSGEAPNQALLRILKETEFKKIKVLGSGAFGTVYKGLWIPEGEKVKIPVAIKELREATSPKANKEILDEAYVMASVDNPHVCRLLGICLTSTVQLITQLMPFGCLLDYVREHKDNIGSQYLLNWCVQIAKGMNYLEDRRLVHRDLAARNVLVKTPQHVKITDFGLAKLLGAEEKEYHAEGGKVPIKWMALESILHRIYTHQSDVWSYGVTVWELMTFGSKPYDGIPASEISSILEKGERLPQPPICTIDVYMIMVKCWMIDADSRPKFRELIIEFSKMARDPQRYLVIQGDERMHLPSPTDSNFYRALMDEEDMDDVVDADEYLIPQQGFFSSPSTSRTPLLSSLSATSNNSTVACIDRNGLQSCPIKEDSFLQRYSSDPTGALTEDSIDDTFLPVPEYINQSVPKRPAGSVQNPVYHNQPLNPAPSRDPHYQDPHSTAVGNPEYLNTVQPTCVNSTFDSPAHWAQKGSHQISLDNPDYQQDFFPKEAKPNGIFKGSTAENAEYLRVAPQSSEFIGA
How it was run: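 EGFR from A431 lysate was captured on anti-EGFR-coated wells and preincubated 30 min with compound (diluted 1:10 in TBS) at room temperature. After ATP/MnCl2 phosphorylation for 5 min, the reaction was stopped with EDTA. Phosphotyrosine was detected by ELISA (anti-phosphotyrosine, peroxidase conjugate, ABTS) at 410 nm.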

SMILES | PDGF Kinase % Inhibition (P.119) (PDGF-R) [%] | Biochem EGFR % Inhibition (P.167) (EGFR) [%]
COc1ccc(C=C2C(=O)Nc3ccc(S(=O)(=O)Nc4ccc(C(F)(F)F)cc4)cc32)cc1F [10737/E06] | 26.5 | −14.1
Cc1ccc(C)c(C=C2C(=O)Nc3ccc(S(=O)(=O)Nc4ccc(C(F)(F)F)cc4)cc32)c1 [10737/E07] | 28.1 | −12.3
O=C1Nc2ccc(S(=O)(=O)Nc3ccc(C(F)(F)F)cc3)cc2C1=Cc1ccc2ccccc2c1 [10737/E08] | 35.6 | −7.8
O=C1Nc2ccc(S(=O)(=O)Nc3ccc(C(F)(F)F)cc3)cc2C1=Cc1ccc(Oc2ccccc2)cc1 [10737/E09] | 25.7 | −0.7
CC(C)(C)c1ccc(Oc2cccc(C=C3C(=O)Nc4ccc(S(=O)(=O)Nc5ccc(C(F)(F)F)cc5)cc43)c2)cc1 [10737/E10] | 30.9 | −4.2
O=C1Nc2ccc(S(=O)(=O)Nc3ccc(C(F)(F)F)cc3)cc2C1=Cc1cccc(Oc2cccc(C(F)(F)F)c2)c1 [10737/E11] | 38.0 | −33.4
CCOc1ccc(C=C2C(=O)Nc3ccc(S(=O)(=O)N4CCOCC4)cc32)cc1 [10737/F02] | 9.0 | 21.4
Cc1ccc(C=C2C(=O)Nc3ccc(S(=O)(=O)N4CCOCC4)cc32)c(C)c1 [10737/F03] | 7.8 | −3.1
O=C1Nc2ccc(S(=O)(=O)N3CCOCC3)cc2C1=Cc1cc(F)ccc1F [10737/F04] | 3.8 | −23.3
O=C1Nc2ccc(S(=O)(=O)N3CCOCC3)cc2C1=Cc1cccc(F)c1F [10737/F05] | 1.0 | −24.0
COc1ccc(C=C2C(=O)Nc3ccc(S(=O)(=O)N4CCOCC4)cc32)cc1F [10737/F06] | 11.3 | −13.7
Cc1ccc(C)c(C=C2C(=O)Nc3ccc(S(=O)(=O)N4CCOCC4)cc32)c1 [10737/F07] | 12.9 | −25.5
O=C1Nc2ccc(S(=O)(=O)N3CCOCC3)cc2C1=Cc1ccc2ccccc2c1 [10737/F08] | 9.8 | 28.3
O=C1Nc2ccc(S(=O)(=O)N3CCOCC3)cc2C1=Cc1ccc(Oc2ccccc2)cc1 [10737/F09] | 9.8 | 23.5
CC(C)(C)c1ccc(Oc2cccc(C=C3C(=O)Nc4ccc(S(=O)(=O)N5CCOCC5)cc43)c2)cc1 [10737/F10] | 11.0 | 14.6
O=C1Nc2ccc(S(=O)(=O)N3CCOCC3)cc2C1=Cc1cccc(Oc2cccc(C(F)(F)F)c2)c1 [10737/F11] | 16.5 | −0.7

SMILES | PDGF Kinase % Inhibition (P.119) (PDGF-R) [%] | Biochem EGFR % Inhibition (P.167) (EGFR) [%]
CCOc1ccc(C=C2C(=O)Nc3ccc(CCCl)cc32)cc1 [10737/G02] | −5.8 | 12.4
Cc1ccc(C=C2C(=O)Nc3ccc(CCCl)cc32)c(C)c1 [10737/G03] | 21.7 | −0.5
O=C1Nc2ccc(CCCl)cc2C1=Cc1cc(F)ccc1F [10737/G04] | 12.1 | −19.3
O=C1Nc2ccc(CCCl)cc2C1=Cc1cccc(F)c1F [10737/G05] | 16.1 | −41.4
COc1ccc(C=C2C(=O)Nc3ccc(CCCl)cc32)cc1F [10737/G06] | −10.2 | −43.4
Cc1ccc(C)c(C=C2C(=O)Nc3ccc(CCCl)cc32)c1 [10737/G07] | 24.1 | −25.0
O=C1Nc2ccc(CCCl)cc2C1=Cc1ccc2ccccc2c1 [10737/G08] | 13.7 | 30.8
O=C1Nc2ccc(CCCl)cc2C1=Cc1ccc(Oc2ccccc2)cc1 [10737/G09] | 8.2 | 23.6
CC(C)(C)c1ccc(Oc2cccc(C=C3C(=O)Nc4ccc(CCCl)cc43)c2)cc1 [10737/G10] | −0.2 | 17.2
O=C1Nc2ccc(CCCl)cc2C1=Cc1cccc(Oc2cccc(C(F)(F)F)c2)c1 [10737/G11] | 5.0 | 2.8
CCOc1ccc(C=C2C(=O)Nc3c(Br)cc(Br)c(C)c32)cc1 [10737/H02] | −18.1 | −17.2
Cc1ccc(C=C2C(=O)Nc3c(Br)cc(Br)c(C)c32)c(C)c1 [10737/H03] | −21.3 | −22.6
Cc1c(Br)cc(Br)c2c1C(=Cc1cc(F)ccc1F)C(=O)N2 [10737/H04] | −21.3 | −17.6
Cc1c(Br)cc(Br)c2c1C(=Cc1cccc(F)c1F)C(=O)N2 [10737/H05] | −6.2 | −17.4
COc1ccc(C=C2C(=O)Nc3c(Br)cc(Br)c(C)c32)cc1F [10737/H06] | −1.8 | −31.0
